*: point of attachment. Biotin = O=C1N[C@H]2[C@H](CS[C@H]2CCCCC(=O)*)N1
Columns and labels:
normal mouse serum = conditions: 37° C.

Substance	cleaved bond (normal mouse serum; up to 6 h)	cleaved bond (normal mouse serum; up to 24 h)	other results
Biotin-CAVPNLRGDLQVLAQKVCRTK-NH2 (cysteine pairing not given here)	C18-arginine19	–	–
acetyl-NCVPhNLRGDLQVLADQKVCRDTKD-biotin [C2C18 Ph AD RDTKD DFBP]	–	–	cell surface half-life (internalization) (BxPC-3 cells): 11.93 min
Biotin-NCVPNLRGDLQVLAQKVCRTK-NH2 (cysteine pairing not given here)	C18-arginine19, 2 h	–	–

Further lines, with some results ahead:

cleaved bond (normal mouse serum; up to 6 h)	cleaved bond (normal mouse serum; up to 24 h)	Substance	other results
–	Asn1-C2	biotin-NCVPhNLRGDLQVLAQKVCRDTKAD-amide	–
C18-arginine19, 2 h	–	Biotin-CAVPNLRGDLQVLAQKVCRTK-NH2 (cysteine pairing not given here) [C1C18 DFBP]	–
–	Asn1-C2	Biotin-NCVPNLRGDLQVLAQKVCRDTKAD-NH2 (cysteine pairing not given here)	–
